According to ChEMBL document CHEMBL1128865, “A systematic study of P1P3 spanning sidechains for the inhibition of HIV-1 protease” (Bioorg Med Chem Lett, 1995):
pEC50, pIC50: −log10 of the molar value.

System: CCRF-CEM
Assay: Concentration required for inhibitory activity against CEM cells in a whole cell assay
Type: functional
Settings: Homo sapiens, read-out: ED50 (the source's name)

In order of rising pEC50:
1. CC(C)(C)NC(=O)[C@@H]1C[C@@H]2CCCC[C@@H]2CN1C[C@@H](O)[C@H](Cc1ccccc1)NC(=O)[C@H](CC(N)=O)NC(=O)c1ccc2ccccc2n1  8.82
2. CC(C)(C)NC(=O)[C@@H]1C[C@@H]2CCCC[C@@H]2CN1C[C@@H](O)[C@H](CSc1ccc2ccccc2c1)NC(=O)[C@H](CC(N)=O)NC(=O)c1ccc2ccccc2n1  8.85
3. CC(C)(C)NC(=O)[C@@H]1C[C@@H]2CCCC[C@@H]2CN1C[C@@H](O)[C@H](CSc1ccccc1)NC(=O)[C@H](CC(N)=O)NC(=O)c1ccc2ccccc2n1  8.89

System: CCRF-CEM
Assay: Concentration required for inhibitory activity against CEM cells in a whole cell assay.
Type: functional
Settings: Homo sapiens, read-out: ED50 (the source's name)

With `CC(C)(C)NC(=O)c1ccccc1C[C@@H](O)[C@H](Cc1ccccc1)NC(=O)[C@H](CC(N)=O)NC(=O)c1ccc2ccccc2n1` the pEC50 was 7.64.

Target: Human immunodeficiency virus type 1 protease (Human immunodeficiency virus 1, UniProt Q72874)
Assay: Inhibitory activity against HIV-1 protease
Settings: not given

Compared with `CC(C)(C)NC(=O)c1ccccc1C[C@@H](O)[C@H](CSc1ccccc1)NC(=O)[C@H](CC(N)=O)NC(=O)OCc1ccccc1`, `CC(C)(C)NC(=O)c1ccccc1C[C@@H](O)[C@H](CSc1ccc2ccccc2c1)NC(=O)[C@H](CC(N)=O)NC(=O)OCc1ccccc1` is 0.97 log units higher in pIC50: 7.85 for the first, 8.82 for the second. The second is the more potent here.

Going from `CC(C)(C)NC(=O)c1ccccc1C[C@@H](O)[C@H](CSc1ccccc1)NC(=O)[C@H](CC(N)=O)NC(=O)c1ccc2ccccc2n1` to `CC(C)(C)NC(=O)c1ccccc1C[C@@H](O)[C@H](CSc1ccc2ccccc2c1)NC(=O)[C@H](CC(N)=O)NC(=O)c1ccc2ccccc2n1`, the pIC50 rises from 8.96 to > 9.60. The second is the more potent here.

`CC(C)(C)NC(=O)c1ccccc1C[C@@H](O)[C@H](CSc1ccccc1)NC(=O)CCC(N)=O` and `CC(C)(C)NC(=O)c1ccccc1C[C@@H](O)[C@H](CSc1ccc2ccccc2c1)NC(=O)CCC(N)=O` cannot be ordered by pIC50: < 6.82 for the first, < 7.10 for the second.

Going from `CC(C)(C)NC(=O)[C@@H]1C[C@@H]2CCCC[C@@H]2CN1C[C@@H](O)[C@H](CSc1ccc2ccccc2c1)NC(=O)[C@H](CC(N)=O)NC(=O)c1ccc2ccccc2n1` to `CC(C)(C)NC(=O)[C@@H]1C[C@@H]2CCCC[C@@H]2CN1C[C@@H](O)[C@H](CSc1ccccc1)NC(=O)[C@H](CC(N)=O)NC(=O)c1ccc2ccccc2n1`, the pIC50 falls from > 9.60 to 8.82.

Going from `CC(=O)N[C@@H](CC(N)=O)C(=O)N[C@@H](CSc1ccc2ccccc2c1)[C@H](O)Cc1ccccc1C(=O)NC(C)(C)C` to `CC(=O)N[C@@H](CC(N)=O)C(=O)N[C@@H](CSc1ccccc1)[C@H](O)Cc1ccccc1C(=O)NC(C)(C)C`, the pIC50 falls from 8.96 to 7.72 (1.24 log units). The first is the more potent here.
